Results taken from patent US20080125480A1, “Oil-In-Water Formulation Of Avermectins” (priority 2004, published 2008).

Assays:
[1] = Stability of Abamectin in water at various pH-values and temperatures (dark, HPLC); type: physicochemical
Procedure: The stability of Abamectin in water at various pH-values and temperatures was determined. 194.4 mg of abamectin was dissolved in 10 ml methanol and 1 ml of the solution transferred to 100 ml of de-mineralised water and a part of this was transferred to a buffer solution. The sample was kept in the dark and the solution analysed using a HPLC.

[2] = Stability of Abamectin in water exposed to light at various pH-values (HPLC); type: physicochemical
Procedure: The stability of Abamectin in water exposed to light at various pH-values was determined. 194.4 mg of abamectin was dissolved in 10 ml methanol and 1 ml of the solution transferred to 100 ml of demineralised water and a part of this transferred to a buffer solution. […]

Work on Abamectin yielded an Abamectin concentration ([1]; pH 4.0, 25 °C, 7 days) of 3.130 ppm, an Abamectin concentration ([1]; pH 4.0, 25 °C, 14 days) of 2.782 ppm and an Abamectin concentration ([1]; pH 4.0, 25 °C, 21 days) of 2.566 ppm. For the same substance, the Abamectin concentration ([1]; pH 4.0, 25 °C, 28 days) was 2.524 ppm, the Abamectin concentration ([1]; pH 4.0, 25 °C, Initial) was 3.495 ppm and the Abamectin concentration ([1]; pH 4.0, 50 °C, 7 days) was 1.054 ppm. It also gave an Abamectin concentration ([1]; pH 4.0, 50 °C, 14 days) of 0.383 ppm, an Abamectin concentration ([1]; pH 4.0, 50 °C, 21 days) of 0.123 ppm and an Abamectin concentration ([1]; pH 4.0, 50 °C, 28 days) of 0.0609 ppm. For the same substance, the Abamectin concentration ([1]; pH 4.0, 50 °C, Initial) was 3.495 ppm, the Abamectin concentration ([1]; pH 7.0, 25 °C, 7 days) was 3.188 ppm and the Abamectin concentration ([1]; pH 7.0, 25 °C, 14 days) was 3.040 ppm. The Abamectin concentration ([1]; pH 7.0, 25 °C, 21 days) was 2.829 ppm, the Abamectin concentration ([1]; pH 7.0, 25 °C, 28 days) was 2.676 ppm and the Abamectin concentration ([1]; pH 7.0, 25 °C, Initial) was 3.327 ppm. It also gave an Abamectin concentration ([1]; pH 7.0, 50 °C, 7 days) of 2.952 ppm, an Abamectin concentration ([1]; pH 7.0, 50 °C, 14 days) of 2.780 ppm and an Abamectin concentration ([1]; pH 7.0, 50 °C, 21 days) of 2.194 ppm. It also gave an Abamectin concentration ([1]; pH 7.0, 50 °C, 28 days) of 1.949 ppm, an Abamectin concentration ([1]; pH 7.0, 50 °C, Initial) of 3.327 ppm and an Abamectin concentration ([1]; pH 9.0, 25 °C, 7 days) of 3.005 ppm. The Abamectin concentration ([1]; pH 9.0, 25 °C, 14 days) was 2.596 ppm, the Abamectin concentration ([1]; pH 9.0, 25 °C, 21 days) was 2.380 ppm and the Abamectin concentration ([1]; pH 9.0, 25 °C, 28 days) was 2.287 ppm. For the same substance, the Abamectin concentration ([1]; pH 9.0, 25 °C, Initial) was 3.555 ppm, the Abamectin concentration ([1]; pH 9.0, 50 °C, 7 days) was 1.265 ppm and the Abamectin concentration ([1]; pH 9.0, 50 °C, 14 days) was 0.519 ppm. It also gave an Abamectin concentration ([1]; pH 9.0, 50 °C, 21 days) of 0.205 ppm, an Abamectin concentration ([1]; pH 9.0, 50 °C, 28 days) of 0.0628 ppm and an Abamectin concentration ([1]; pH 9.0, 50 °C, Initial) of 3.555 ppm. The Abamectin concentration ([2]; pH 4.0, 25° C., Dark, 7 days) was 3.130 ppm, the Abamectin concentration ([2]; pH 4.0, 25° C., Dark, 14 days) was 2.782 ppm and the Abamectin concentration ([2]; pH 4.0, 25° C., Dark, 21 days) was 2.566 ppm. It also gave an Abamectin concentration ([2]; pH 4.0, 25° C., Dark, 28 days) of 2.524 ppm, an Abamectin concentration ([2]; pH 4.0, 25° C., Dark, Initial) of 3.495 ppm and an Abamectin concentration ([2]; pH 4.0, 25° C., Light (5000-6000 lux), 7 days) of 2.923 ppm. The Abamectin concentration ([2]; pH 4.0, 25° C., Light (5000-6000 lux), 14 days) was 2.332 ppm, the Abamectin concentration ([2]; pH 4.0, 25° C., Light (5000-6000 lux), 21 days) was 1.961 ppm and the Abamectin concentration ([2]; pH 4.0, 25° C., Light (5000-6000 lux), 28 days) was 1.666 ppm. The Abamectin concentration ([2]; pH 4.0, 25° C., Light (5000-6000 lux), Initial) was 3.495 ppm, the Abamectin concentration ([2]; pH 7.0, 25° C., Dark, 7 days) was 3.188 ppm and the Abamectin concentration ([2]; pH 7.0, 25° C., Dark, 14 days) was 3.040 ppm. For the same substance, the Abamectin concentration ([2]; pH 7.0, 25° C., Dark, 21 days) was 2.829 ppm, the Abamectin concentration ([2]; pH 7.0, 25° C., Dark, 28 days) was 2.676 ppm and the Abamectin concentration ([2]; pH 7.0, 25° C., Dark, Initial) was 3.327 ppm. For the same substance, the Abamectin concentration ([2]; pH 7.0, 25° C., Light (5000-6000 lux), 7 days) was 2.941 ppm, the Abamectin concentration ([2]; pH 7.0, 25° C., Light (5000-6000 lux), 14 days) was 2.529 ppm and the Abamectin concentration ([2]; pH 7.0, 25° C., Light (5000-6000 lux), 21 days) was 2.223 ppm. The Abamectin concentration ([2]; pH 7.0, 25° C., Light (5000-6000 lux), 28 days) was 2.034 ppm, the Abamectin concentration ([2]; pH 7.0, 25° C., Light (5000-6000 lux), Initial) was 3.327 ppm and the Abamectin concentration ([2]; pH 9.0, 25° C., Dark, 7 days) was 3.005 ppm. For the same substance, the Abamectin concentration ([2]; pH 9.0, 25° C., Dark, 14 days) was 2.596 ppm, the Abamectin concentration ([2]; pH 9.0, 25° C., Dark, 21 days) was 2.380 ppm and the Abamectin concentration ([2]; pH 9.0, 25° C., Dark, 28 days) was 2.287 ppm. It also gave an Abamectin concentration ([2]; pH 9.0, 25° C., Dark, Initial) of 3.555 ppm, an Abamectin concentration ([2]; pH 9.0, 25° C., Light (5000-6000 lux), 7 days) of 3.163 ppm and an Abamectin concentration ([2]; pH 9.0, 25° C., Light (5000-6000 lux), 14 days) of 2.810 ppm. For the same substance, the Abamectin concentration ([2]; pH 9.0, 25° C., Light (5000-6000 lux), 21 days) was 2.360 ppm, the Abamectin concentration ([2]; pH 9.0, 25° C., Light (5000-6000 lux), 28 days) was 2.173 ppm and the Abamectin concentration ([2]; pH 9.0, 25° C., Light (5000-6000 lux), Initial) was 3.555 ppm.
